Measured values taken from US11000033B2, “Ketone or oxime compound, and herbicide” (NISSAN CHEMICAL CORPORATION, priority 2014, dated 2021).

Key:
Assay type in all cases: in vivo
corn = test: Test Example 4: effect on crop by soil treatment (symbol c); conditions: application herbicide amount 320 g/ha
Summary of the method: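 Sterilized diluvial soil, spot sowing, ~1.5 cm soil cover; greenhouse 25–30° C.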

Veronica persica = test: Test Example 4: herbicidal effect by soil treatment (symbol R); conditions: application herbicide amount 320 g/ha
Summary of the method: (§1)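 Seeds were sown in sterilized diluvial soil, covered with about 1.5 cm of soil, and the soil surface was sprayed with a water-diluted emulsion of the compound at a predetermined rate. Plants grew in a greenhouse at 25° C. to 30° C.; effects were scored visually 3 weeks after application.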

[1] = system: Echinochloa oryzacola Vasing.; test: Test Example 2: herbicidal activity, application during weed generation in submerged conditions (symbol A); conditions: Table 23; application herbicide amount 320 g/ha; grade 0-5 by criteria of Test Example 1
Summary of the method: (§2)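 Weeds emerging under flooded conditions were treated with compound formulated as an emulsion and diluted with water to the intended herbicide amount, poured onto the surface of 4 cm standing water. Seeds had been co-sown in alluvial soil; plants grew at 25° C. to 30° C. and were assessed after 3 weeks.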

wheat = test: Test Example 5: effect on crop by foliage application, plastic box (symbol e); conditions: 320 g/ha, 3 weeks after application
Summary of the method: (§3)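 Crop seed is sown alongside grass and broadleaf weed species in spots in sterilized diluvial soil, then covered to a depth of about 1.5 cm. Plants grow in a greenhouse kept at 25° C. to 30° C.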

Abutilon theophrasti = test: Test Example 4: herbicidal effect by soil treatment (symbol M); conditions: application herbicide amount 320 g/ha
Summary of the method: as §1

Setaria viridis = test: Test Example 4: herbicidal effect by soil treatment (symbol G); conditions: application herbicide amount 320 g/ha
Summary of the method: as §1

Stellaria media [2] = test: Test Example 5: herbicidal effect by foliage application, plastic box (symbol P); conditions: 320 g/ha, 3 weeks after application
Summary of the method: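 Post-emergence spray; diluvial soil (sterilized), ~1.5 cm seed cover; greenhouse 25–30° C; 14-day-old plants; water-diluted emulsion at predetermined dose; visual score at 3 wk post-treatment.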

rapeseed = test: Test Example 5: effect on crop by foliage application, plastic box (symbol g); conditions: 320 g/ha, 3 weeks after application
Summary of the method: as §3

Leptochloa chinensis = test: Test Example 3: herbicidal effect by foliage application, Wagner pot (symbol D); conditions: application herbicide amount 320 g/ha
Summary of the method: (§4)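 Alluvial soil was flooded to a depth of 0.1–0.5 cm, seeded with the weeds and rice, and kept in a greenhouse at 25–30 °C. After 14 days of growth, the foliage received a small-sprayer application of emulsion diluted to the intended rate; injury was rated at 3 weeks.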

Cyperus difformis = test: Test Example 3: herbicidal effect by foliage application, Wagner pot (symbol E); conditions: application herbicide amount 320 g/ha
Summary of the method: as §4

Digitaria ciliaris = test: Test Example 4: herbicidal effect by soil treatment (symbol F); conditions: application herbicide amount 320 g/ha
Summary of the method: as §1

Stellaria media [3] = test: Test Example 4: herbicidal effect by soil treatment (symbol P); conditions: application herbicide amount 320 g/ha
Summary of the method: as §1

[4] = system: Echinochloa crus-galli var. crus-galli; test: Test Example 3: herbicidal effect by foliage application, Wagner pot (symbol H); conditions: application herbicide amount 320 g/ha
Summary of the method: as §4

Monochoria vaginalis = test: Test Example 2: herbicidal activity, application during weed generation in submerged conditions (symbol C); conditions: Table 23; application herbicide amount 320 g/ha; grade 0-5 by criteria of Test Example 1
Summary of the method: as §2

Alopecurus myosuroides = test: Test Example 4: herbicidal effect by soil treatment (symbol J); conditions: application herbicide amount 320 g/ha
Summary of the method: as §1

| SMILES | Effect on crop grade, c: corn (corn) | Herbicidal effect grade, R: Veronica persica (Veronica persica) | Herbicidal effect grade, A: Echinochloa oryzacola Vasing. [1] | e: wheat, effect on crop (criteria of Test Example 1) (wheat) | Herbicidal effect grade, M: Abutilon theophrasti (Abutilon theophrasti) | Herbicidal effect grade, G: Setaria viridis (Setaria viridis) | P: Stellaria media, herbicidal effect (criteria of Test Example 1) (Stellaria media [2]) | g: rapeseed, effect on crop (criteria of Test Example 1) (rapeseed) | herbicidal effect on D (Leptochloa chinensis), grade 0-5 (Leptochloa chinensis) | herbicidal effect on E, grade 0-5 (Cyperus difformis) | Herbicidal effect grade, F: Digitaria ciliaris (Digitaria ciliaris) | Herbicidal effect grade, P: Stellaria media (Stellaria media [3]) | herbicidal effect on H (Echinochloa crus-galli var. crus-galli), grade 0-5 [4] | Herbicidal effect grade, C: Monochoria vaginalis (Monochoria vaginalis) | Herbicidal effect grade, J: Alopecurus myosuroides (Alopecurus myosuroides) |
| --- | --- | --- | --- | --- | --- | --- | --- | --- | --- | --- | --- | --- | --- | --- | --- |
| CON=C(C)CC1CC(OC(=O)COc2ccccc2)=C(c2c(C)cc(-c3ccccc3)cc2OC)C1=O (stereo not drawn) [6-100] | 4 (Herbicidal ratio of 70% or higher and lower than 90%) | 5 (Herbicidal ratio of 90% or more (almost completely withered)) | 5 (Herbicidal ratio of 90% or more (almost completely withered)) | 5 (Herbicidal ratio of 90% or more (almost completely withered)) | 4 (Herbicidal ratio of 70% or higher and lower than 90%) | 5 (Herbicidal ratio of 90% or more (almost completely withered)) | 3 (Herbicidal ratio of 40% or higher and lower than 70%) | 5 (Herbicidal ratio of 90% or more (almost completely withered)) | 5 (Herbicidal ratio of 90% or more (almost completely withered)) | 5 (Herbicidal ratio of 90% or more (almost completely withered)) | 5 (Herbicidal ratio of 90% or more (almost completely withered)) | 4 (Herbicidal ratio of 70% or higher and lower than 90%) | 5 (Herbicidal ratio of 90% or more (almost completely withered)) | 5 (Herbicidal ratio of 90% or more (almost completely withered)) | 5 (Herbicidal ratio of 90% or more (almost completely withered)) |
| CCc1cc(Br)cc(C)c1C1=C(O)CC(CC(C)=O)C1=O (stereo not drawn) [7-003] | 0 (Herbicidal ratio of 5% or lower (almost no effect)) | 0 (Herbicidal ratio of 5% or lower (almost no effect)) | 2 (Herbicidal ratio of 20% or higher and lower than 40%) | 0 (Herbicidal ratio of 5% or lower (almost no effect)) | 0 (Herbicidal ratio of 5% or lower (almost no effect)) | 5 (Herbicidal ratio of 90% or more (almost completely withered)) | 0 (Herbicidal ratio of 5% or lower (almost no effect)) | 0 (Herbicidal ratio of 5% or lower (almost no effect)) | 5 (Herbicidal ratio of 90% or more (almost completely withered)) | 0 (Herbicidal ratio of 5% or lower (almost no effect)) | 5 (Herbicidal ratio of 90% or more (almost completely withered)) | 0 (Herbicidal ratio of 5% or lower (almost no effect)) | 5 (Herbicidal ratio of 90% or more (almost completely withered)) | 0 (Herbicidal ratio of 5% or lower (almost no effect)) | 5 (Herbicidal ratio of 90% or more (almost completely withered)) |
| CC(=O)CC1CC(O)=C(c2c(C)cc(-c3ccccc3)cc2C)C1=O (stereo not drawn) [7-004] | 4 (Herbicidal ratio of 70% or higher and lower than 90%) | 0 (Herbicidal ratio of 5% or lower (almost no effect)) | 4 (Herbicidal ratio of 70% or higher and lower than 90%) | 0 (Herbicidal ratio of 5% or lower (almost no effect)) | 3 (Herbicidal ratio of 40% or higher and lower than 70%) | 5 (Herbicidal ratio of 90% or more (almost completely withered)) | 0 (Herbicidal ratio of 5% or lower (almost no effect)) | 3 (Herbicidal ratio of 40% or higher and lower than 70%) | 5 (Herbicidal ratio of 90% or more (almost completely withered)) | 5 (Herbicidal ratio of 90% or more (almost completely withered)) | 5 (Herbicidal ratio of 90% or more (almost completely withered)) | 0 (Herbicidal ratio of 5% or lower (almost no effect)) | 5 (Herbicidal ratio of 90% or more (almost completely withered)) | 0 (Herbicidal ratio of 5% or lower (almost no effect)) | 5 (Herbicidal ratio of 90% or more (almost completely withered)) |
| CC(=O)CC1CC(O)=C(c2c(C)cc(-c3ccc(C(F)(F)F)cc3)cc2C)C1=O (stereo not drawn) [7-005] | 0 (Herbicidal ratio of 5% or lower (almost no effect)) | 0 (Herbicidal ratio of 5% or lower (almost no effect)) | 1 (Herbicidal ratio of 5% or higher and lower than 20%) | 0 (Herbicidal ratio of 5% or lower (almost no effect)) | 0 (Herbicidal ratio of 5% or lower (almost no effect)) | 0 (Herbicidal ratio of 5% or lower (almost no effect)) | 1 (Herbicidal ratio of 5% or higher and lower than 20%) | 0 (Herbicidal ratio of 5% or lower (almost no effect)) | 5 (Herbicidal ratio of 90% or more (almost completely withered)) | 0 (Herbicidal ratio of 5% or lower (almost no effect)) | 5 (Herbicidal ratio of 90% or more (almost completely withered)) | 0 (Herbicidal ratio of 5% or lower (almost no effect)) | 5 (Herbicidal ratio of 90% or more (almost completely withered)) | 0 (Herbicidal ratio of 5% or lower (almost no effect)) | 0 (Herbicidal ratio of 5% or lower (almost no effect)) |
| COc1ccc(-c2cc(C)c(C3=C(O)CC(CC(C)=O)C3=O)c(C)c2)cc1 (stereo not drawn) [7-006] | 0 (Herbicidal ratio of 5% or lower (almost no effect)) | 0 (Herbicidal ratio of 5% or lower (almost no effect)) | 2 (Herbicidal ratio of 20% or higher and lower than 40%) | 0 (Herbicidal ratio of 5% or lower (almost no effect)) | 0 (Herbicidal ratio of 5% or lower (almost no effect)) | 0 (Herbicidal ratio of 5% or lower (almost no effect)) | 0 (Herbicidal ratio of 5% or lower (almost no effect)) | 3 (Herbicidal ratio of 40% or higher and lower than 70%) | 5 (Herbicidal ratio of 90% or more (almost completely withered)) | 0 (Herbicidal ratio of 5% or lower (almost no effect)) | 0 (Herbicidal ratio of 5% or lower (almost no effect)) | 0 (Herbicidal ratio of 5% or lower (almost no effect)) | 5 (Herbicidal ratio of 90% or more (almost completely withered)) | 0 (Herbicidal ratio of 5% or lower (almost no effect)) | 0 (Herbicidal ratio of 5% or lower (almost no effect)) |
